# Results published in ChEMBL document CHEMBL1154464, “Constrained analogues of tocainide as potent skeletal muscle sodium channel blockers towards the development of antimyotonic agents” (Eur J Med Chem, 2008).
# How the values were obtained:
# Pelophylax lessonae = experiment: Ratio of IC50 for tonic blockade of Nav1.4 sodium channel to phasic blockade of Nav1.4 sodium channel in frog semitendinosus muscle fibres; type: tissue-based
# [1] = Blockade of Nav1.4 sodium channel in frog semitendinosus muscle fibres assessed as phasic block at 10 Hz stimulation frequency by vaseline-gap voltage clamp method; type: tissue-based, Pelophylax lessonae
# [2] = Blockade of Nav1.4 sodium channel in frog semitendinosus muscle fibres assessed as tonic block elicited by infrequent depolarizing pulses at a frequency of 0.3 Hz by vaseline-gap voltage clamp method; type: tissue-based, Pelophylax lessonae
IC50 [1],IC50 [2],Structure (SMILES),Ratio IC50 (Pelophylax lessonae)
2.4 µM,31.6 µM,Cc1cccc(C)c1NC(=O)C1CN(Cc2ccccc2)CCN1 (configuration not stated),13
273 µM,581 µM,Cc1cccc(C)c1NC(=O)C(C)N (configuration not stated) [TOCAINIDE],
4.5 µM,38.5 µM,Cc1cccc(C)c1NC(=O)C1CCCN(Cc2ccccc2)C1 (configuration not stated),
